Test results from ChEMBL document CHEMBL4402510, “Caprazamycins: Promising lead structures acting on a novel antibacterial target MraY” (Eur J Med Chem, 2019).
Converted amounts (≈) assume the structure as drawn.

What was measured:
Mycolicibacterium phlei = assay: Antibacterial activity against Mycobacterium phlei after 20 hrs by NCCLS-based two-fold broth dilution method; format: functional
Bacillus subtilis [1] = assay: Antibacterial activity against Bacillus subtilis after 20 hrs by NCCLS-based two-fold broth dilution method; format: functional
Enterococcus faecalis [2] = assay: Antibacterial activity against Enterococcus faecalis NCTC122103; format: functional
Streptococcus pneumoniae [3] = assay: Antibacterial activity against Streptococcus pneumoniae S-223; format: functional
Escherichia coli = assay: Antibacterial activity against Escherichia coli after 20 hrs by NCCLS-based two-fold broth dilution method; format: functional
Bacillus subtilis [4] = assay: Inhibition of TagO in Bacillus subtilis
Staphylococcus aureus [5] = assay: Antibacterial activity against methicillin resistant Staphylococcus aureus No. 5; format: functional
[6] = test system: Mycobacterium tuberculosis; assay: Inhibition of WecA in Mycobacterium tuberculosis mc2 6230
[7] = test system: Mycolicibacterium smegmatis; assay: Antibacterial activity against Mycobacterium smegmatis after 20 hrs by NCCLS-based two-fold broth dilution method; format: functional
Klebsiella pneumoniae = assay: Antibacterial activity against Klebsiella pneumoniae after 20 hrs by NCCLS-based two-fold broth dilution method; format: functional
Mycobacterium avium = assay: Antibacterial activity against Mycobacterium avium after 20 hrs by NCCLS-based two-fold broth dilution method; format: functional
Mycolicibacterium vaccae = assay: Antibacterial activity against Mycobacterium vaccae after 20 hrs by NCCLS-based two-fold broth dilution method; format: functional
[8] = test system: Mycobacterium tuberculosis; assay: Inhibition of WecA in Mycobacterium tuberculosis
[9] = molecular target: T1, Phospho-N-acetylmuramoyl-pentapeptide-transferase (Bacillus subtilis (strain 168), UniProt Q03521); assay: Inhibition of MraY in Bacillus subtilis
T1 sequence (Q03521 whole entry): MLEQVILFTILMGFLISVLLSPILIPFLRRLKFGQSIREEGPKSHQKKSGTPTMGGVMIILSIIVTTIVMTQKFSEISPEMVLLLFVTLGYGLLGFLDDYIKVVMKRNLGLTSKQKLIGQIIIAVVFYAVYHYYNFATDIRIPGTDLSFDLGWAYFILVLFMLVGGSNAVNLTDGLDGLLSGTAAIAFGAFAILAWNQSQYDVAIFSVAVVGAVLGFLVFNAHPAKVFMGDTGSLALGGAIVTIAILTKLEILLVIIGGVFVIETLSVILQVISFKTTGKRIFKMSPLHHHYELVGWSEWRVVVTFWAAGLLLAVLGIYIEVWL

Enterococcus faecalis [10] = assay: Antibacterial activity against Enterococcus faecalis JCM 5803; format: functional
Staphylococcus aureus [11] = assay: Antibacterial activity against Staphylococcus aureus FDA209P; format: functional; details: FDA 209P
[12] = Antibacterial activity against Mycobacterium avium subsp. avium ATCC 25291; format: functional
[13] = test system: Mycobacterium intracellulare; assay: Antibacterial activity against Mycobacterium intracellulare after 20 hrs by NCCLS-based two-fold broth dilution method; format: functional
[14] = test system: Mycobacterium avium subsp. paratuberculosis; assay: Antibacterial activity against Mycobacterium avium subsp. paratuberculosis ATCC 43015; format: functional
[15] = test system: Mycobacterium tuberculosis; assay: Antibacterial activity against Mycobacterium tuberculosis H37Rv; format: functional
[16] = test system: Mycolicibacterium smegmatis; assay: Inhibition of WecA in Mycobacterium smegmatis
[17] = test system: Mycobacterium tuberculosis; assay: Antibacterial activity against Mycobacterium tuberculosis after 20 hrs by NCCLS-based two-fold broth dilution method; format: functional
Streptococcus pneumoniae [18] = assay: Antibacterial activity against Streptococcus pneumoniae CR-8; format: functional
[19] = test system: Mycobacterium intracellulare; assay: Antibacterial activity against Mycobacterium intracellulare JCM3684; format: functional
Staphylococcus aureus [20] = assay: Antibacterial activity against Staphylococcus aureus after 20 hrs by NCCLS-based two-fold broth dilution method; format: functional
Staphylococcus aureus [21] = assay: Antibacterial activity against methicillin resistant Staphylococcus aureus after 20 hrs by NCCLS-based two-fold broth dilution method; format: functional; details: read-out: MIC
Enterococcus faecalis [22] = assay: Antibacterial activity against t Enterococcus faecalis after 20 hrs by NCCLS-based two-fold broth dilution method; format: functional; details: read-out: MIC
Enterococcus faecium [23] = assay: Antibacterial activity against Enterococcus faecium SR7917 (VRE); format: functional
Staphylococcus aureus [24] = assay: Antibacterial activity against methicillin resistant Staphylococcus aureus SR3637; format: functional
Haemophilus influenzae [25] = assay: Antibacterial activity against Haemophilus influenzae after 20 hrs by NCCLS-based two-fold broth dilution method; format: functional
Pseudomonas aeruginosa [26] = assay: Antibacterial activity against Pseudomonas aeruginosa after 20 hrs by NCCLS-based two-fold broth dilution method; format: functional
Staphylococcus aureus [27] = assay: Antibacterial activity against methicillin susceptible Staphylococcus aureus ATCC 29213; format: functional
Streptococcus pneumoniae [28] = assay: Antibacterial activity against Streptococcus pneumoniae after 20 hrs by NCCLS-based two-fold broth dilution method; format: functional
Enterococcus faecalis [29] = assay: Antibacterial activity against Enterococcus faecalis ATCC 29212; format: functional
Enterococcus faecalis [30] = assay: Antibacterial activity against Enterococcus faecalis SR7914 (VRE); format: functional
Staphylococcus aureus [31] = assay: Antibacterial activity against methicillin susceptible Staphylococcus aureus after 20 hrs by NCCLS-based two-fold broth dilution method; format: functional; details: read-out: MIC
Pseudomonas aeruginosa [32] = assay: Antibacterial activity against Pseudomonas aeruginosa YY165; format: functional
Haemophilus influenzae [33] = assay: Antibacterial activity against Haemophilus influenzae ATCC 10211; format: functional
Enterococcus faecalis [34] = assay: Antibacterial activity against t Enterococcus faecalis VRE after 20 hrs by NCCLS-based two-fold broth dilution method; format: functional; details: read-out: MIC
Enterococcus faecium [35] = assay: Antibacterial activity against Enterococcus faecium ATCC 19434; format: functional
Enterococcus faecium [36] = assay: Antibacterial activity against t Enterococcus faecium after 20 hrs by NCCLS-based two-fold broth dilution method; format: functional

CCCCc1ccc(NC(=O)C2=CCN(C)[C@@H]([C@H](O[C@@H]3O[C@H](CN)[C@@H](O)[C@H]3O)[C@H]3O[C@@H](n4ccc(=O)[nH]c4=O)[C@H](O)[C@@H]3O)C(=O)N2C)cc1 showed an MIC (Mycolicibacterium phlei) of 12.5 µg/mL (≈ 18.1 µM), an MIC (Bacillus subtilis [1]) of 3.13 µg/mL (≈ 4.54 µM) and an MIC (Enterococcus faecalis [2]) of 8 to 100 µg/mL (≈ 11.6 to 145 µM). For the same molecule, the MIC (Streptococcus pneumoniae [3]) was 8 to 100 µg/mL (≈ 11.6 to 145 µM), the MIC (Escherichia coli) was > 100 µg/mL and the MIC (Bacillus subtilis [4]) was 0.05 µg/mL (≈ 0.0726 µM). The MIC (Staphylococcus aureus [5]) was 8 to 100 µg/mL (≈ 11.6 to 145 µM), the MIC [6] was 0.04 µg/mL (≈ 0.0581 µM) and the MIC [7] was 6.25 µg/mL (≈ 9.07 µM). The MIC (Klebsiella pneumoniae) was 50 µg/mL (≈ 72.6 µM), the MIC (Mycobacterium avium) was 0.39 to 1.56 µg/mL (≈ 0.566 to 2.27 µM) and the MIC (Mycolicibacterium vaccae) was 50 µg/mL (≈ 72.6 µM). The MIC [8] was 0.04 µg/mL (≈ 0.0581 µM), the IC50 [9] was 581 nM and the MIC (Enterococcus faecalis [10]) was 8 to 100 µg/mL (≈ 11.6 to 145 µM). The MIC (Staphylococcus aureus [11]) was 8 to 100 µg/mL (≈ 11.6 to 145 µM), the MIC [12] was 0.2 to 1.56 µg/mL (≈ 0.29 to 2.27 µM) and the MIC [13] was 0.2 µg/mL (≈ 0.29 µM). The MIC [14] was 0.2 to 1.56 µg/mL (≈ 0.29 to 2.27 µM), the MIC [15] was 0.2 to 1.56 µg/mL (≈ 0.29 to 2.27 µM) and the MIC [16] was 0.0044 µg/mL (≈ 0.00639 µM). The MIC [17] was 1.56 µg/mL (≈ 2.27 µM), the MIC (Streptococcus pneumoniae [18]) was 8 to 100 µg/mL (≈ 11.6 to 145 µM) and the MIC [19] was 0.2 to 1.56 µg/mL (≈ 0.29 to 2.27 µM). For the same molecule, the MIC (Staphylococcus aureus [20]) was 25 µg/mL (≈ 36.3 µM) and the MIC (Staphylococcus aureus [21]) was 100 µg/mL (≈ 145 µM).
For CCCCCCCCC(CCCCCCCC)C(=O)N[C@@H]1CCN[C@@H]([C@H](O[C@@H]2O[C@H](CN)[C@@H](O)[C@H]2O)[C@H]2O[C@@H](n3ccc(=O)[nH]c3=O)[C@H](O)[C@@H]2O)C1, the MIC (Enterococcus faecalis [22]) was 4 µg/mL (≈ 5.41 µM), the MIC (Enterococcus faecium [23]) was 8 µg/mL (≈ 10.8 µM) and the MIC (Staphylococcus aureus [24]) was 8 µg/mL (≈ 10.8 µM). The MIC (Haemophilus influenzae [25]) was 16 µg/mL (≈ 21.6 µM), the MIC (Pseudomonas aeruginosa [26]) was 32 µg/mL (≈ 43.2 µM) and the MIC (Staphylococcus aureus [27]) was 4 µg/mL (≈ 5.41 µM). It also gave an MIC (Streptococcus pneumoniae [28]) of 16 µg/mL (≈ 21.6 µM), an MIC (Enterococcus faecalis [29]) of 4 µg/mL (≈ 5.41 µM) and an MIC (Enterococcus faecalis [30]) of 4 µg/mL (≈ 5.41 µM). The MIC (Staphylococcus aureus [31]) was 4 µg/mL (≈ 5.41 µM), the MIC (Pseudomonas aeruginosa [32]) was 16 µg/mL (≈ 21.6 µM) and the MIC (Haemophilus influenzae [33]) was 32 µg/mL (≈ 43.2 µM). The MIC (Enterococcus faecalis [34]) was 4 µg/mL (≈ 5.41 µM), the MIC (Enterococcus faecium [35]) was 8 µg/mL (≈ 10.8 µM) and the MIC (Staphylococcus aureus [21]) was 8 µg/mL (≈ 10.8 µM). It also gave an MIC (Enterococcus faecium [36]) of 8 µg/mL (≈ 10.8 µM).
